Laboratory results reported in patent US20060122234A1, “Substituted thienyl-hydroxamic acids as histone deacetylase inhibitors” (Argenta Discovery Limited, priority 2002, published 2006).
pIC50: −log10 of the molar value.

Key:
[1] = tested on: histone deacetylase activity (total lysates from K562 cells or HeLa nuclear extracts); assay: Deacetylase assay (primary assay), fluorescent acetylated-lysine substrate; type: biochemical, human; details: 30 minutes, 116 μM fluorescent substrate, 1% DMSO; read-out: IC50 (histone deacetylase enzymatic activity)
Description: Compounds are tested for their capacity to inhibit histone deacetylase activity (primary assay) and for their biological effects on growing cells (secondary assay).
Total lysates from K562 chronic human myelogenous leukemia cells (obtained from American Type Culture Collection, Rockville, Md.) are used as source of HDAC activity. Cells are grown in RPMI media supplied with 10% FCS, harvested by centrifugation, washed once in PBS and resuspended at a density of 24×10^6/ml in HDA buffer (15 mM Potassium phosphate pH 7.5, 5% glycerol, 0.2 mM EDTA). After sonication, lysates are centrifuged at 1000 g for 20 minutes and the resulting supernatant is aliquoted and stored at −80° C. Alternatively, commercially available HeLa nuclear extracts (BIOMOL) are used as source of histone deacetylase activity.
The assay was carried out for 30 minutes using 116 μM of a fluorescent substrate containing an acetylated lysine (BIOMOL). When deacetylation of the lysine occurs, the substrate can react with the added developer producing a fluorophore. The amount of fluorophore produced is proportional to the HDAC activity in the sample and is quantified using a multiwell fluorimeter capable of excitation at 360 nm and detection at 450 nm.
Compounds are diluted in DMSO prior to addition to assay buffer, the final DMSO concentration in the assay being 1%.
The percent activity of the compounds in reducing histone deacetylase enzymatic activity is calculated as follow: % activity={(F^S−B)/(F^C−B)}×100 where: […]
F^S is the fluorescence at 450 nm in the presence of the tested compound (Sample).
F^C is the fluorescence at 450 nm in the presence of vehicle 1% DMSO (Control). B is the fluorescence at 450 nm in the absence of enzyme (Background fluorescence)
(§1) The IC50 is defined as the concentration at which a given compound achieves 50% activity. IC50 values are calculated using the XLfit software package (version 2.0.5).

[2] = tested on: MCF-7 human mammary gland adenocarcinoma cells; assay: Cell proliferation assay (secondary assay), CyQUANT, MCF-7; type: cell-based; details: MCF7, MCF-7, 72h exposure, 0.1% DMSO
Description: (§2) Compounds are tested in a cell proliferation assay using the following cell lines:
Both cell lines are free of Mycoplasma contamination (PCR Mycoplasma Detection Set, Takara). MCF-7 are kept in MEM medium (Gibco) supplemented with 10% FCS and 1% Non Essential Amino Acids at 37° C. in a 5% CO2 humidified incubator.
(§3) Cells are seeded in 96-well plates at a density of 20,000 cells/ml (3,000 cells/well) and after 24 h they are exposed to different concentrations of compounds in 0.1% DMSO. Cells are grown for a further 72h, the media is removed and the cells are frozen at −80° C. for at least 30 minutes and lysed in a solution containing the CyQUANT dye. […] Therefore the fluorescence intensity is proportional to the number of cells present in each well and can be quantified using a multiwell fluorimeter by measuring the fluorescence of the solution at 520 nm.
(§4) The percent activity of the compounds in reducing cell number is calculated as follow: % activity={(A^S−B)/(A^C−B)}×100 where: […]
(§5) A^S is the fluorescence at 520 nm in the presence of the tested compound (Sample).
(§6) A^C is the fluorescence at 520 nm in the presence of vehicle 0.1% DMSO (Control).
(§7) B is the fluorescence at 520 nm in the absence of cells (Background fluorescence).
as §1

[3] = tested on: MDA-MB-231 human mammary gland adenocarcinoma cells; assay: Cell proliferation assay (secondary assay), CyQUANT, MDA-MB-231; type: cell-based; details: MDA-MB-231, 72h exposure, 0.1% DMSO
Description: as §2
MDA-MB-231 are kept in L-15 (Leibovitz) medium (Gibco) supplemented with 15% FCS at 37° C. in a non-modified atmosphere, humidified incubator.
as §3, §4, §5, §6, §7, §1

Structure (SMILES)	pIC50 [1]	pIC50 [2]	pIC50 [3]
NS(=O)(=O)c1cccc(NC(=O)Cn2ccc(-c3ccc(C(=O)NO)s3)n2)c1 [Example 1 (dc), 5-{1-[(3-Sulfamoyl-phenylcarbamoyl)-methyl]-1H-pyrazol-3-yl}-thiophene-2-carboxylic acid hydroxyamide]	6.62		
O=C(NO)c1ccc(-c2ccccc2)s1 [Example 1 (g), 5-Phenyl-thiophene-2-carboxylic acid hydroxyamide]	6.05	4.51	4.36
Cn1nc(C(F)(F)F)cc1-c1ccc(C(=O)NO)s1 [Example 1 (a), 5-(2-Methyl-5-trifluoromethyl-2H-pyrazol-3-yl)-thiophene-2-carboxylic acid hydroxyamide]		4.96	4.49

Further lines, results first:

pIC50 [1]	pIC50 [2]	pIC50 [3]	Structure (SMILES)
7.12	5.64	5.14	O=C(NO)c1ccc(-c2nccc(OCc3ccccc3)n2)s1 [Example 1 (z), 5-(4-Benzyloxy-pyrimidin-2-yl)-thiophene-2-carboxylic acid hydroxyamide]
6.82	5.68	5.35	O=C(NO)c1ccc(-c2ccn(Cc3ccccc3)n2)s1 [Example 1 (l), 5-(1-Benzyl-1H-pyrazol-3-yl)-thiophene-2-carboxylic acid hydroxyamide]
7.21	6.22	5.70	O=C(NO)c1ccc(-c2ccc(NCc3cc4ccccc4o3)cn2)s1 [Example 1 (ba), 5-{5-[(Benzofuran-2-ylmethyl)-amino]-pyridin-2-yl}-thiophene-2-carboxylic acid hydroxyamide]
